From patent US20260137809A1, “GENE THERAPY VECTORS FOR TREATMENT OF CANCER” (Siren Biotechnology, Inc., priority 2022, published 2026)

Legend:
X^on induction system = experiment: Dose studies with various inducer molecules, AAV-CAG-X^on-eGFP fluorescence (Example 3); assay type: cell-based; conditions: cells transduced with 1e^6 vg/cell AAV-CAG-X^on-eGFP; inducer added after 24 hours at 4 concentrations
Description: Briefly, cells were seeded in black 96-well plates for 24 hours and transduced with 1e^6 vg/cell AAV-CAG-X^on-eGFP as described in Example 1. After 24 hours, each inducer was added directly into the cell media at 4 different concentrations each. Cells expressing the eGFP payload were visualized by fluorescent live imaging (20× magnification) after induction with branaplam (FIG. 20A) or RG7800 (FIG. 20B). Cells were counter-stained with […] Hoechst to identify nuclei and determine total cell counts for normalization. The number of eGFP-positive cells as well as the green fluorescence intensity was measured for each well and each condition up to 9 hours post-induction to determine the kinetics of the payload expression post-induction (FIGS. 20C-20H).

[1] = system: X^on splicing control element; experiment: Kinetics of eGFP induction with branaplam and RG7800-HCl, live cell imaging (Example 4); assay type: cell-based; conditions: for induced eGFP expression level compared with the constitutive construct: AAV-CAG-X^on-eGFP versus constitutive AAV-CAG-eGFP, inducer at optimal concentrations; for course of eGFP payload expression after induction: AAV-CAG-X^on-eGFP, monitored for 14, 28 or 84 hours
Description: Cells were seeded in 96-well plates for 24 hours and transduced with AAV-CAG-X^on-eGFP or constitutive AAV-CAG-eGFP as the positive control, and treated with or without branaplam or RG7800-HCl. Fluorescent eGFP payload expression was monitored for a total of 14 hours (FIGS. 21A-21D) or 28 hours (FIGS. 22A-22D) by live cell imaging.

X^on splicing element = experiment: Inducible AAV-GFP / AAV-eGFP expression after the inducer branaplam, live fluorescent imaging (Example 2); assay type: cell-based, human; conditions: HEK293-T cells transduced with AAV-CAG-X^on-eGFP, branaplam 125 nM
From the text: Adherent human HEK293-T cells were transduced with inducible AAV-GFP, followed by fluorescent imaging for GFP expression pre- and post-administration of an inducer molecule (e.g., branaplam). The data is seen in FIG. 17.
Adherent human HEK293-T cells were transduced with AAV-GFP at varying dosages, followed by administration of an inducer molecule (e.g., branaplam), and monitored for GFP expression over several hours to determine initial expression kinetics at different AAV dosages in vitro. The data is seen in FIG. 19.
In a similar set of experiments, HEK293-T cells were plated in a 96-well plate for 24 hours and transduced with a broad range of multiplicity of infection (MOI) using a constitutively-expressing payload expression construct, AAV-CAG-eGFP, to determine the necessary MOI for detectable eGFP expression prior to advancing to the inducible constructs described in Example 1. MOIs tested ranged from 3E4 to 4E6 vg/cell. Transduction efficacy was assessed by measuring the eGFP payload expression from transduced cells using a fluorescent microscopy imager (FIG. 18). Once an MOI was selected, the inducible AAV-CAG-X^on-eGFP was tested with an inducer molecule, branaplam at 125 nM, 24 hours post-transduction. […] Control cells were transduced with AAV-CAG-X^on-eGFP without the addition of an inducer. […]

[2] = system: X^on splicing control element; experiment: ON/OFF control of fLuc expression with cycles of branaplam (Example 6); assay type: cell-based, human; conditions: HEK293-T, AAV-CAG-X^on-fLuc, MOI 2.5E5 vg/cell
Description: HEK293-T cells were transduced with AAV and then branaplam, and after 24 hours of induction with branaplam, supernatants were harvested and assayed for luciferase expression, and the media was replaced with fresh medium without branaplam. Supernatants for the next timepoint were then harvested after 24 hours in the condition without branaplam, and the cycle was repeated (e.g., one or two or more times; FIG. 25A). Briefly, HEK293-T cells were transduced with an MOI of 2.5E5 vg/cell of AAV-CAG-X^on-fLuc (FIG. 25B) for 24 hours, followed by addition of branaplam at 3 different concentrations at hour 24 for an additional 24 hours (“ON”). Supernatants were then harvested for the measurement of fLuc, and media was replaced with fresh media lacking branaplam (“OFF”) for 24 hours. Supernatants were harvested after 24 hours in the OFF state. fLuc luminescent signal was measured for each cycle in sample supernatants at each time point and condition described (FIG. 25C).

[3] = system: X^on splicing control element; experiment: ON/OFF control of hIFNβ expression with branaplam, ELISA of supernatants (Example 7); assay type: cell-based, human; conditions: HEK293-T, AAV-CAG-X^on-hIFNβ, MOI 2.5e^5 vg/cell
Description: Briefly, HEK293-T cells were transduced with an MOI of 2.5e^5 vg/cell of AAV-CAG-X^on-hIFNβ or constitutive AAV-CAG-hIFNβ for 24 hours. 24 hours post-transduction with AAV, branaplam was added to the cell media to induce human IFNβ (hIFNβ) expression (“ON”). After 24 hours, media supernatants were harvested for payload measurement and fresh media lacking Branaplam (“OFF”). 24 hours later, media supernatants were harvested for payload detection (FIG. 25A). Amounts of hIFNβ were measured in picograms per milliliter (pg/mL) (FIG. 26A) using an ELISA kit for hIFNβ in supernatants before and after induction with branaplam, and after removal of branaplam. FIG. 26B depicts the expression of hIFNβ following transduction with AAV-CAG-X^on-hIFNβ normalized to the levels of expression obtained with the constitutive payload.

| SMILES | active concentration for induction of eGFP payload expression (X^on induction system) [µM] | induced eGFP expression level compared with the constitutive construct [1] | course of eGFP payload expression after induction [1] | detectable GFP and eGFP expression, earliest time post-induction (X^on splicing element; 24 hours post-transduction, imaging every 30 minutes) [h] | course of GFP and eGFP signal post-induction (X^on splicing element; read up to 5 hours) | fLuc expression in OFF conditions (without branaplam for 24 hours) [2] | re-induction of fLuc expression achievable and detectable, number of cycles [2] | dose of branaplam needed to mediate reliable payload expression and cycle control ([2]; 3 concentrations, 24 hours ON / 24 hours OFF) [nM] | number of repeat ON/OFF cycles on the same transduced cells [3] | time to induced expression of hIFNβ after induction ([3]; ELISA of supernatant) [h] | time until hIFNβ expression stopped after removal of branaplam ([3]; ELISA of supernatant) [h] |
| --- | --- | --- | --- | --- | --- | --- | --- | --- | --- | --- | --- |
| CCc1nc(C)cn2nc(-c3cc(=O)n4cc(C5CCN(C)CC5)cc(C)c4n3)cc12.Cl [RG7800-HCl] | 20 | nearly the same levels of expression | continued to increase over the first 12 hours, followed by a slower increase to 24 hours |  |  |  |  |  |  |  |  |
| CCc1nc(C)cn2nc(-c3cc(=O)n4cc(C5CCN(C)CC5)cc(C)c4n3)cc12 [RG7800] | 20 |  |  |  |  |  |  |  |  |  |  |
| CC1(C)CC(Oc2ccc(-c3ccc(-c4cn[nH]c4)cc3O)nn2)CC(C)(C)N1 [branaplam] |  | nearly the same levels of expression | continued to increase over the first 12 hours, followed by a slower increase to 24 hours | 3 | continuing to increase up to 5 hours post-induction | reliably reduced expression of the fLuc | at least 2 full induction cycles | ≥ 200 | up to 2 repeat cycles | ≤ 24 | ≤ 24 |
